Each structure is given as a SMILES string.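 How tested: cells in 96-well plates exposed to compound for 48 hours at five concentrations. GI50: concentration for 50% inhibition of growth.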 The source made the active and inactive calls. Cut-off read from the data, not from the text of the source: active = GI50 up to about 1.1 µM and inactive = higher. Non-standard residues stand in square brackets, D forms with d. Residues, ends and D or L forms follow the SMILES beside them. ξ: configuration not given here. Pentanoyl(2-O,4-OH,5-Cl) = O=C(O)C(O)CC(O)CCl; Ile(3ξ) = CCC(C)[C@H](N)C(=O)O; NMeV = CN[C@H](C(=O)O)C(C)C; NMeA = CN[C@@H](C)C(=O)O; βAla = NCCC(=O)O

Data on eleven compounds can be found in ChEMBL document CHEMBL1201862, “PubChem BioAssay data set” (2004).

Among the test systems are A549; CAKI-1; CCRF-CEM; COLO 205; EKVX; HL-60; HOP-62; HOP-92; HT-29; IGROV-1; LOX IMVI; MCF7; NCI-H522; OVCAR-4; OVCAR-8; RXF 393; SF-295; SNB-19; SW-620; HCC 2998.
What all share (experiment): DTP human tumour cell line panel, 48 h

In general, GI50 refers to the concentration giving 50% growth inhibition. Regarding `CSc1ncnc2c1ncn2CCC#N`, the GI50 in the assay on A549, in the assay on CAKI-1, in the assay with CCRF-CEM, in the assay with COLO 205, in the assay on EKVX and in the assay with HL-60 was > 100 µM (inactive) each time. Further, the GI50 in the assay on HOP-62, in the assay on HOP-92, in the assay with HT-29, in the assay with IGROV-1, in the assay on LOX IMVI and with MCF7 was > 100 µM (inactive) throughout. The GI50 in the assay with NCI-H522, with OVCAR-4, with OVCAR-8, with RXF 393, in the assay with SF-295 and in the assay with SNB-19 was > 100 µM (inactive) throughout. For the same compound, the GI50 in the assay on SW-620 is > 100 µM (inactive).

In the case of `Cc1ccc(C#CS(=O)(=O)C(F)(F)F)cc1`, the GI50 in the assay on A549 is > 100 µM (inactive); with CCRF-CEM it was > 100 µM (inactive); in the assay with COLO 205, > 100 µM (inactive); in the assay with EKVX it was > 100 µM (inactive); in the assay with HCC 2998 it was > 100 µM (inactive); with HL-60, > 31.6 µM (inactive). Further, the GI50 was > 100 µM (inactive) with HOP-62; > 100 µM (inactive) in the assay on HOP-92; > 100 µM (inactive) in the assay on HT-29; > 100 µM (inactive) in the assay on IGROV-1; > 31.6 µM (inactive) in the assay with LOX IMVI; > 100 µM (inactive) with MCF7. The GI50 in the assay on NCI-H522 was > 100 µM (inactive); in the assay with OVCAR-4, > 100 µM (inactive); in the assay with OVCAR-8, > 100 µM (inactive); with RXF 393 it was > 100 µM (inactive); in the assay on SF-295, > 31.6 µM (inactive); in the assay with SNB-19 it was > 100 µM (inactive). In addition, in the assay with SW-620, the GI50 is > 100 µM (inactive).

For `Cc1ccc(NC(=O)/C(=N/N(C)C)C(C2OC(=O)c3ccccc32)[N+](=O)[O-])cc1` (centres undefined), the GI50 in the assay with A549, with CAKI-1, in the assay with CCRF-CEM, with HCC 2998, in the assay on HL-60 and in the assay on HOP-62 was > 100 µM (inactive) each time. The GI50 in the assay with HOP-92, in the assay with HT-29, in the assay on LOX IMVI, in the assay on MCF7, in the assay with OVCAR-4 and in the assay on OVCAR-8 was > 100 µM (inactive) throughout. In addition, the GI50 with RXF 393, with SF-295 and in the assay on SW-620 was > 100 µM (inactive) throughout.

Turning to `COC1C(O)C(n2ncc3c(SC)nc(SC)nc32)OC1C(O)CO` (centres undefined), the GI50 in the assay on A549, with CCRF-CEM, in the assay on COLO 205, in the assay with EKVX, with HCC 2998 and with HL-60 was > 100 µM (inactive) in each case. For the same compound, the GI50 in the assay with HOP-62, with HOP-92, in the assay with HT-29, with IGROV-1, in the assay on LOX IMVI and with MCF7 was > 100 µM (inactive) in each case. Moreover, the GI50 with NCI-H522, in the assay with OVCAR-4, in the assay with OVCAR-8, in the assay on RXF 393, in the assay with SF-295 and with SNB-19 was > 100 µM (inactive) throughout. Further, the GI50 with SW-620 was > 100 µM (inactive).

As for `Nc1ccc(N(S(=O)(=O)c2ccccc2)S(=O)(=O)c2ccccc2)c(Cl)c1`, the GI50 in the assay with A549 was 50.5 µM (inactive); with CAKI-1 it was 47.3 µM (inactive); with COLO 205, 21 µM (inactive); in the assay on EKVX, 64.3 µM (inactive); in the assay with HCC 2998, 18.5 µM (inactive); in the assay on HOP-62, 63.8 µM (inactive). Moreover, the GI50 with HOP-92 is 70.3 µM (inactive); in the assay with HT-29 it was 37.8 µM (inactive); in the assay with IGROV-1, 62.1 µM (inactive); with LOX IMVI it was 68.1 µM (inactive); in the assay on MCF7 it was 39.3 µM (inactive); with NCI-H522, 33.9 µM (inactive). In addition, the GI50 is 75.3 µM (inactive) in the assay on OVCAR-4; 70.8 µM (inactive) in the assay on OVCAR-8; > 100 µM (inactive) in the assay on RXF 393; 32.2 µM (inactive) in the assay with SF-295; > 100 µM (inactive) with SNB-19; 42.9 µM (inactive) in the assay with SW-620.

As to `CCC(C)[C@@H]1NC(=O)[C@@H]2CCCN2C(=O)C(CC(O)CCl)OC(=O)CCNC(=O)[C@H](C)N(C)C(=O)[C@H](C(C)C)N(C)C1=O` (some centres undefined) (cyclo([Ile(3ξ)][NMeV][NMeA][βAla][Pentanoyl(2-O,4-OH,5-Cl)]P)), the GI50 is 47.6 µM (inactive) in the assay with A549; > 100 µM (inactive) in the assay with CAKI-1; 0.483 µM (active) with CCRF-CEM; 1.91 µM (inactive) with COLO 205; > 100 µM (inactive) in the assay on EKVX; 44.1 µM (inactive) in the assay with HL-60. Also, the GI50 in the assay on HOP-62 is > 68.2 µM (inactive); in the assay on HOP-92 it was 1.09 µM (active); in the assay on HT-29 it was 3.12 µM (inactive); with IGROV-1 it was > 100 µM (inactive); in the assay on MCF7, > 39.8 µM (inactive); in the assay on NCI-H522 it was 2.36 µM (inactive). Further, the GI50 with OVCAR-4 was > 36.2 µM (inactive); in the assay with OVCAR-8, > 100 µM (inactive); with RXF 393 it was > 100 µM (inactive); with SF-295 it was 2.31 µM (inactive); with SNB-19 it was > 100 µM (inactive); with SW-620, > 58.9 µM (inactive).

Regarding `N#CCCC(CCC#N)(CCC#N)NO`, the GI50 in the assay with A549, in the assay with CAKI-1, in the assay on COLO 205, in the assay on EKVX, in the assay with HL-60 and in the assay with HOP-92 was > 100 µM (inactive) each time. The GI50 in the assay with HT-29 is > 100 µM (inactive); in the assay with IGROV-1 it was > 100 µM (inactive); with MCF7 it was > 100 µM (inactive); in the assay on NCI-H522, 0.013 µM (active); in the assay on OVCAR-8, > 100 µM (inactive); with RXF 393, > 100 µM (inactive). In addition, the GI50 with SF-295, with SNB-19 and in the assay on SW-620 was > 100 µM (inactive) in each case.

For the compound `CC(C)CC(N)C(=O)NC(CNC(CCC(N)=O)C(=O)NC(CC(C)C)C(=O)NC(CC(C)C)C(=O)O)Cc1ccc2ccccc2c1` (centres undefined), the GI50 in the assay on A549 was > 10 µM (inactive); in the assay with CAKI-1, 9.31 µM (inactive); in the assay with CCRF-CEM it was > 10 µM (inactive); in the assay on COLO 205, > 10 µM (inactive); with EKVX, > 10 µM (inactive); with HCC 2998, > 10 µM (inactive). Also, the GI50 with HL-60, with HOP-62, with HOP-92, in the assay with HT-29, in the assay with IGROV-1 and in the assay with LOX IMVI was > 10 µM (inactive) throughout. Also, the GI50 in the assay on MCF7, in the assay with OVCAR-4, in the assay on OVCAR-8, in the assay on RXF 393, in the assay on SF-295 and in the assay on SNB-19 was > 10 µM (inactive) throughout. Further, in the assay with SW-620, the GI50 is > 10 µM (inactive).

As for `C[C@]12CC/C(=N\O)C=C1CC[C@@H]1[C@@H]2CC[C@]2(C)C(=N/O)/C(=C/c3cccnc3)C[C@@H]12`, the GI50 with A549 was 13.1 µM (inactive); with CCRF-CEM, 7.38 µM (inactive); with COLO 205, 17.2 µM (inactive); in the assay on EKVX, 18.4 µM (inactive); with HL-60 it was 0.338 µM (active); with HOP-62, 18.7 µM (inactive). The GI50 in the assay on HOP-92 was 12.8 µM (inactive); in the assay with HT-29 it was 19 µM (inactive); in the assay on IGROV-1 it was 30.4 µM (inactive); in the assay with LOX IMVI, 4.76 µM (inactive); with MCF7, 6.97 µM (inactive); with NCI-H522, 12.1 µM (inactive). Also, the GI50 with OVCAR-4 is 18.1 µM (inactive); in the assay with OVCAR-8, 15.4 µM (inactive); in the assay with SF-295 it was 6.95 µM (inactive); in the assay on SNB-19, 23.4 µM (inactive); with SW-620 it was 31.8 µM (inactive).

In the case of `N#CC1=C(O)NC(O)=C(C#N)C1c1c(Cl)cccc1Cl`, the GI50 was 27.3 µM (inactive) with A549; 30.1 µM (inactive) in the assay on CAKI-1; > 100 µM (inactive) in the assay with CCRF-CEM; 37.1 µM (inactive) in the assay on COLO 205; 40.7 µM (inactive) with EKVX; 7.93 µM (inactive) in the assay with HCC 2998. The GI50 in the assay on HL-60 is 81.5 µM (inactive); with HOP-62, 27.7 µM (inactive); in the assay on HOP-92 it was 15.8 µM (inactive); in the assay with HT-29, 39.4 µM (inactive); with IGROV-1 it was 40.6 µM (inactive); in the assay with LOX IMVI it was 15.8 µM (inactive). The GI50 with NCI-H522 is 35.2 µM (inactive); in the assay with OVCAR-4, 67.8 µM (inactive); in the assay with OVCAR-8, 20.2 µM (inactive); in the assay on RXF 393, 7.8 µM (inactive); in the assay with SF-295 it was 34.8 µM (inactive); with SNB-19 it was 38.6 µM (inactive). For the same compound, the GI50 in the assay with SW-620 is 37.2 µM (inactive).

Regarding `N#Cc1c(NC(=S)NC(=O)c2ccccc2)nc2c(c1-c1ccccc1)CCCC2`, the GI50 in the assay with A549 is > 100 µM (inactive); with CAKI-1 it was > 100 µM (inactive); in the assay on CCRF-CEM, > 100 µM (inactive); in the assay on COLO 205, > 100 µM (inactive); in the assay with HL-60 it was > 100 µM (inactive); in the assay on HOP-62, 45.3 µM (inactive). Further, the GI50 is > 100 µM (inactive) in the assay on HT-29; > 100 µM (inactive) with IGROV-1; > 100 µM (inactive) in the assay with LOX IMVI; 58.9 µM (inactive) in the assay with MCF7; 22.5 µM (inactive) in the assay on OVCAR-4; 36.6 µM (inactive) in the assay with OVCAR-8. Moreover, the GI50 in the assay on RXF 393 was 17.8 µM (inactive); in the assay on SF-295 it was 34.9 µM (inactive); with SNB-19, > 100 µM (inactive); in the assay with SW-620 it was > 100 µM (inactive).
